What was measured:
Type in all cases: functional
MDA-MB-231 = test: Cytotoxicity against human MDA-MB-231 cells assessed as cell growth at 100 uM after 48 hrs by SRB assay relative to control; conditions: MDA-MB-231, 48 h, read-out: Activity
Hs-578T [1] = test: Cytotoxicity against human Hs 578T cells after 48 hrs by SRB assay
SN12C [2] = test: Cytotoxicity against human SN12C cells assessed as cell growth at 100 uM after 48 hrs by SRB assay relative to control; conditions: read-out: Activity
UO-31 [3] = test: Cytotoxicity against human UO31 cells assessed as cell growth at 100 uM after 48 hrs by SRB assay relative to control; conditions: UO-31, 48 h, read-out: Activity
HCT-15 = test: Cytotoxicity against human HCT15 cells assessed as cell growth at 1 uM after 48 hrs by SRB assay relative to control; conditions: HCT-15, 48 h, read-out: Activity
OVCAR-3 = test: Cytotoxicity against human OVCAR3 cells assessed as cell growth at 0.1 uM after 48 hrs by SRB assay relative to control; conditions: OVCAR-3, 48 h, read-out: Activity
COLO 205 = test: Cytotoxicity against human COLO205 cells assessed as cell growth at 100 uM after 48 hrs by SRB assay relative to control; conditions: COLO 205, 48 h, read-out: Activity
A549 = test: Cytotoxicity against human A549 cells assessed as cell growth at 100 uM after 48 hrs by SRB assay relative to control; conditions: A549, 48 h, read-out: Activity
SK-MEL-2 [4] = test: Cytotoxicity against human SK-MEL-2 cells after 48 hrs by SRB assay; conditions: SK-MEL-2, 48 h
DU-145 [5] = test: Cytotoxicity against human DU145 cells after 48 hrs by SRB assay; conditions: DU-145, 48 h
HCC 2998 [6] = test: Cytotoxicity against human HCC2998 cells after 48 hrs by SRB assay; conditions: HCC 2998, 48 h
HL-60(TB) = test: Cytotoxicity against human HL-60(TB) cells assessed as cell growth at 100 uM after 48 hrs by SRB assay relative to control; conditions: HL-60, 48 h, read-out: Activity
SR [7] = test: Cytotoxicity against human SR cells after 48 hrs by SRB assay
SW-620 = test: Cytotoxicity against human SW620 cells assessed as cell growth at 0.1 uM after 48 hrs by SRB assay relative to control; conditions: SW-620, 48 h, read-out: Activity
M14 = test: Cytotoxicity against human M14 cells assessed as cell growth at 0.01 uM after 48 hrs by SRB assay relative to control; conditions: M14, 48 h, read-out: Activity
MCF7 = test: Cytotoxicity against human MCF7 cells after 48 hrs by SRB assay; conditions: MCF7, 48 h
SN12C [8] = test: Cytotoxicity against human SN12C cells assessed as cell growth at 0.01 uM after 48 hrs by SRB assay relative to control; conditions: read-out: Activity
TK-10 = test: Cytotoxicity against human TK10 cells assessed as cell growth at 0.01 uM after 48 hrs by SRB assay relative to control; conditions: TK-10, 48 h, read-out: Activity
HOP-62 [9] = test: Cytotoxicity against human HOP62 cells assessed as cell growth at 100 uM after 48 hrs by SRB assay relative to control; conditions: HOP-62, 48 h, read-out: Activity
SNB-75 = test: Cytotoxicity against human SNB75 cells assessed as cell growth at 0.1 uM after 48 hrs by SRB assay relative to control; conditions: SNB-75, 48 h, read-out: Activity
SK-MEL-5 = test: Cytotoxicity against human SK-MEL-5 cells assessed as cell growth at 0.01 uM after 48 hrs by SRB assay relative to control; conditions: SK-MEL-5, 48 h, read-out: Activity
UO-31 [10] = test: Cytotoxicity against human UO31 cells assessed as cell growth at 0.01 uM after 48 hrs by SRB assay relative to control; conditions: UO-31, 48 h, read-out: Activity
Hs-578T [11] = test: Cytotoxicity against human Hs 578T cells assessed as cell growth at 0.1 uM after 48 hrs by SRB assay relative to control; conditions: read-out: Activity
HCC 2998 [12] = test: Cytotoxicity against human HCC2998 cells assessed as cell growth at 0.1 uM after 48 hrs by SRB assay relative to control; conditions: HCC 2998, 48 h, read-out: Activity
HOP-92 = test: Cytotoxicity against human HOP92 cells after 48 hrs by SRB assay; conditions: HOP-92, 48 h; for CC50: read-out: LC50 (the source's name)
LOX IMVI = test: Cytotoxicity against human LOXIMVI cells after 48 hrs by SRB assay
Malme-3M = test: Cytotoxicity against human MALME-3M cells after 48 hrs by SRB assay
CCRF-CEM = test: Cytotoxicity against human CCRF-CEM cells assessed as cell growth at 1 uM after 48 hrs by SRB assay relative to control; conditions: read-out: Activity
SR [13] = test: Cytotoxicity against human SR cells assessed as cell growth at 0.01 uM after 48 hrs by SRB assay relative to control; conditions: read-out: Activity
PC-3 = test: Cytotoxicity against human PC3 cells assessed as cell growth at 100 uM after 48 hrs by SRB assay relative to control; conditions: PC-3, 48 h, read-out: Activity
SK-MEL-28 = test: Cytotoxicity against human SK-MEL-28 cells assessed as cell growth at 100 uM after 48 hrs by SRB assay relative to control; conditions: SK-MEL-28, 48 h, read-out: Activity
SK-MEL-2 [14] = test: Cytotoxicity against human SK-MEL-2 cells assessed as cell growth at 100 uM after 48 hrs by SRB assay relative to control; conditions: SK-MEL-2, 48 h, read-out: Activity
OVCAR-8 [15] = test: Cytotoxicity against human OVCAR8 cells assessed as cell growth at 0.01 uM after 48 hrs by SRB assay relative to control; conditions: OVCAR-8, 48 h, read-out: Activity
HOP-62 [16] = test: Cytotoxicity against human HOP62 cells assessed as cell growth at 0.01 uM after 48 hrs by SRB assay relative to control; conditions: HOP-62, 48 h, read-out: Activity
DU-145 [17] = test: Cytotoxicity against human DU145 cells assessed as cell growth at 100 uM after 48 hrs by SRB assay relative to control; conditions: DU-145, 48 h, read-out: Activity
OVCAR-8 [18] = test: Cytotoxicity against human OVCAR8 cells after 48 hrs by SRB assay; conditions: OVCAR-8, 48 h
HT-29 = test: Cytotoxicity against human HT-29 cells assessed as cell growth at 0.01 uM after 48 hrs by SRB assay relative to control; conditions: HT-29, 48 h, read-out: Activity

## N#CCCCCCn1cc(C2=C(c3cn(CCCCCC#N)c4ccccc34)C(=O)N(O)C2=O)c2ccccc21
MDA-MB-231
  growth at 100 µM: -7%
Hs-578T [1]
  GI50: 3.97 µM
  LC50 (50% lethal concentration): > 100 µM
  TGI: > 100 µM
SN12C [2]
  growth at 100 µM: 5%
UO-31 [3]
  growth at 100 µM: -1%
HCT-15
  growth at 1 µM: 92%
OVCAR-3
  growth at 0.1 µM: 101%
COLO 205
  growth at 100 µM: -22%
A549
  growth at 100 µM: 5%
SK-MEL-2 [4]
  GI50: 3.38 µM
  LC50 (concentration killing 50% of cells): > 100 µM
  TGI: 14.9 µM
DU-145 [5]
  GI50: 27.8 µM
  LC50 (50% lethal concentration): > 100 µM
  TGI: > 100 µM
HCC 2998 [6]
  GI50: 14.2 µM
  LC50: > 100 µM
  TGI: > 100 µM
HL-60(TB)
  growth at 100 µM: -27%
SR [7]
  GI50: 3.55 µM
  LC50: > 100 µM
  TGI: 9.48 µM
SW-620
  growth at 0.1 µM: 97%
M14
  growth at 0.01 µM: 97%
MCF7
  GI50: 3.57 µM
  LC50 (concentration killing 50% of cells): > 100 µM
  TGI: 30.7 µM
SN12C [8]
  growth at 0.01 µM: 97%
TK-10
  growth at 0.01 µM: 93%
HOP-62 [9]
  growth at 100 µM: 4%
SNB-75
  growth at 0.1 µM: 72%
SK-MEL-5
  growth at 0.01 µM: 99%
UO-31 [10]
  growth at 0.01 µM: 97%
Hs-578T [11]
  growth at 0.1 µM: 91%
HCC 2998 [12]
  growth at 0.1 µM: 101%
HOP-92
  GI50: 5.03 µM
  TGI: > 100 µM
  CC50: > 100 µM
LOX IMVI
  GI50: 2.53 µM
  LC50: > 100 µM
  TGI: 48.1 µM
Malme-3M
  GI50: 12 µM
  LC50 (concentration killing 50% of cells): > 100 µM
  TGI: 62.8 µM
CCRF-CEM
  growth at 1 µM: 83%
SR [13]
  growth at 0.01 µM: 84%
PC-3
  growth at 100 µM: -4%
SK-MEL-28
  growth at 100 µM: 4%
SK-MEL-2 [14]
  growth at 100 µM: -38%
OVCAR-8 [15]
  growth at 0.01 µM: 99%
HOP-62 [16]
  growth at 0.01 µM: 94%
DU-145 [17]
  growth at 100 µM: 12%
OVCAR-8 [18]
  GI50: 12.3 µM
  LC50: > 100 µM
  TGI: > 100 µM
HT-29
  growth at 0.01 µM: 100%

## Cn1cc(C2=C(c3cn(C)c4ncccc34)C(=O)NC2=O)c2ccccc21
MDA-MB-231
  growth at 100 µM: -25%
Hs-578T [1]
  GI50: 0.847 µM
  TGI: 4.08 µM
SN12C [2]
  growth at 100 µM: -14%
UO-31 [3]
  growth at 100 µM: -17%
HCT-15
  growth at 1 µM: 84%
OVCAR-3
  growth at 0.1 µM: 111%
COLO 205
  growth at 100 µM: -65%
A549
  growth at 100 µM: -19%
SK-MEL-2 [4]
  GI50: 3.2 µM
  TGI: 8.28 µM
DU-145 [5]
  GI50: 6.24 µM
  TGI: 36.2 µM
HCC 2998 [6]
  GI50: 4.35 µM
  TGI: 28.2 µM
HL-60(TB)
  growth at 100 µM: -28%
SR [7]
  GI50: 1.04 µM
  TGI: 18.4 µM
SW-620
  growth at 0.1 µM: 96%
M14
  growth at 0.01 µM: 105%
MCF7
  GI50: 2.4 µM
  TGI: 29.5 µM
SN12C [8]
  growth at 0.01 µM: 89%
TK-10
  growth at 0.01 µM: 100%
HOP-62 [9]
  growth at 100 µM: -17%
SNB-75
  growth at 0.1 µM: 65%
SK-MEL-5
  growth at 0.01 µM: 102%
UO-31 [10]
  growth at 0.01 µM: 90%
Hs-578T [11]
  growth at 0.1 µM: 81%
HCC 2998 [12]
  growth at 0.1 µM: 93%
HOP-92
  GI50: 2.54 µM
  TGI: 23.4 µM
  CC50: > 100 µM
LOX IMVI
  GI50: 2.61 µM
  TGI: 30.2 µM
Malme-3M
  GI50: 5.47 µM
  TGI: 52.4 µM
CCRF-CEM
  growth at 1 µM: 85%
SR [13]
  growth at 0.01 µM: 89%
PC-3
  growth at 100 µM: -9%
SK-MEL-28
  growth at 100 µM: -24%
SK-MEL-2 [14]
  growth at 100 µM: -55%
OVCAR-8 [15]
  growth at 0.01 µM: 105%
HOP-62 [16]
  growth at 0.01 µM: 110%
DU-145 [17]
  growth at 100 µM: -28%
OVCAR-8 [18]
  GI50: 4.23 µM
  TGI: 39.9 µM
HT-29
  growth at 0.01 µM: 109%
